These results are taken from PubChem BioAssay AID192 (DTP/NCI, 2004).

Where “and” joins values, the source holds several entries; their conditions need not be identical. Identical values can stand only once. Toxic doses and inconclusive results are not listed.

For the assay, the system named is BDF1 mice, B16 melanoma ip, median survival T/C. Kind of assay: NCI In Vivo Anticancer Drug Screen. Data for tumor model B16 Melanoma (intraperitoneal) in B6D2F1 (BDF1) mice. Particulars: endpoint: median survival time, higher = longer survival. Put shortly: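 Transplantable tumor model; survival or tumor size measured; reported as T/C, treated over vehicle control.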

[1] abbreviates: dose: 25.0 mg/kg/injection, schedule: Q01DX009 (ip), vehicle: saline with Tween-80.
Setting [2] is: dose: 50.0 mg/kg/injection, schedule: Q01DX009 (ip), vehicle: saline with Tween-80.
Setting [3] is: dose: 100.0 mg/kg/injection, schedule: Q01DX009 (ip), vehicle: saline with Tween-80.
Where [4] appears, read: dose: 200.0 mg/kg/injection, schedule: Q01DX009 (ip), vehicle: saline with Tween-80.
Where [5] appears, read: dose: 12.5 mg/kg/injection, schedule: Q01DX009 (ip), vehicle: Klucel (hydroxypropylcellulose) (HPC).
The mark [6] stands for this setting: dose: 25.0 mg/kg/injection, schedule: Q01DX009 (ip), vehicle: Klucel (hydroxypropylcellulose) (HPC).
[7] abbreviates: dose: 50.0 mg/kg/injection, schedule: Q01DX009 (ip), vehicle: Klucel (hydroxypropylcellulose) (HPC).
The mark [8] stands for this setting: dose: 100.0 mg/kg/injection, schedule: Q01DX009 (ip), vehicle: Klucel (hydroxypropylcellulose) (HPC).
[9] abbreviates: dose: 200.0 mg/kg/injection, schedule: Q01DX009 (ip), vehicle: Klucel (hydroxypropylcellulose) (HPC).
Setting [10] is: dose: 6.25 mg/kg/injection, schedule: Q01DX009 (ip), vehicle: Klucel (hydroxypropylcellulose) (HPC).
Setting [11] is: dose: 1.56 mg/kg/injection, schedule: Q01DX009 (ip), vehicle: Klucel (hydroxypropylcellulose) (HPC).
Where [12] appears, read: dose: 3.12 mg/kg/injection, schedule: Q01DX009 (ip), vehicle: Klucel (hydroxypropylcellulose) (HPC).

As for `CC(C)C1NC(=O)NC1=O` (configuration not stated), the T/C is 100 % of control (dose: 100.0 mg/kg/injection, schedule: Q01DX009 (ip), vehicle: saline); 100 % of control (dose: 100.0 mg/kg/injection, schedule: Q04DX003 (ip), vehicle: saline); 95 % of control (dose: 200.0 mg/kg/injection, schedule: Q01DX009 (ip), vehicle: saline); 106 % of control (dose: 200.0 mg/kg/injection, schedule: Q04DX003 (ip), vehicle: saline); 100 % of control (dose: 400.0 mg/kg/injection, schedule: Q01DX009 (ip), vehicle: saline); 97 % of control (dose: 400.0 mg/kg/injection, schedule: Q04DX003 (ip), vehicle: saline).
`CC(c1ccccc1)N1C(=O)CSC1=S` (configuration not stated): the T/C is, setting by setting: under setting [1], 100 % of control; under setting [2], 94 % of control; under setting [3], 103 % of control; under setting [4], 101 % of control.
Take `Oc1ccc2ccccc2c1C1=NNc2n[nH]c(=S)n2N1`: the T/C was 100 % of control under setting [5], 103 % of control under setting [6] and 112 % of control under setting [7].
Turning to `COc1cc2c(cc1OC)C(OC)N(C)c1c-2ccc2cc(OC)c(OC)cc12` (configuration not stated), the T/C is 98 % of control (dose: 37.5 mg/kg/injection, schedule: Q01DX009 (ip), vehicle: Klucel (hydroxypropylcellulose) (HPC)); 95 % of control (dose: 75.0 mg/kg/injection, schedule: Q01DX009 (ip), vehicle: Klucel (hydroxypropylcellulose) (HPC)); 100 % of control (dose: 150.0 mg/kg/injection, schedule: Q01DX009 (ip), vehicle: Klucel (hydroxypropylcellulose) (HPC)); 100 % of control (dose: 300.0 mg/kg/injection, schedule: Q01DX009 (ip), vehicle: Klucel (hydroxypropylcellulose) (HPC)).
As for `CNC(=O)c1cccc2c(Nc3ccc(NS(C)(=O)=O)cc3OC)c3cccc(C)c3nc12`, the T/C is 162 % of control (dose: 1.5 mg/kg/injection, schedule: Q01DX009 (ip), vehicle: water) and 201 % of control (dose: 3.0 mg/kg/injection, schedule: Q01DX009 (ip), vehicle: water).
`Nc1cccc2c1C(=O)c1cccc(NC(=O)c3ccccc3)c1C2=O`: the T/C is 90 % of control under setting [8]; 106 % of control under setting [9]; 90 % of control (dose: 400.0 mg/kg/injection, schedule: Q01DX009 (ip), vehicle: Klucel (hydroxypropylcellulose) (HPC)).
In the case of `O=C1N(Br)C(=O)C(c2ccc(Cl)cc2)(c2ccc(Cl)cc2)N1Br`, the T/C was 103 % of control under setting [10], 98 % of control under setting [5], 100 % of control under setting [6] and 88 % of control under setting [7].
Turning to `Clc1ccc2c(c1)/C(=C/c1cccnc1)c1cc(Cl)cc(Cl)c1-2`, the T/C under setting [2] was 86 % of control.
Take `CN(C)NCCN1CCN(CCCN2c3ccccc3Sc3ccc(C(F)(F)F)cc32)CC1`: the T/C was 93 % of control (dose: 3.75 mg/kg/injection, schedule: Q01DX009 (ip), vehicle: saline) and 112 % of control (dose: 7.5 mg/kg/injection, schedule: Q01DX009 (ip), vehicle: saline).
On to `CCC(N)CC`, for which the T/C (dose: 25.0 mg/kg/injection, schedule: Q01DX009 (ip), vehicle: saline) is 102 % of control and the T/C (dose: 50.0 mg/kg/injection, schedule: Q01DX009 (ip), vehicle: saline) was 117 % of control.
Turning to `C1CCC2[N-]CC3CCCCC3[N-]CC3CCCCC3[N-]CC3CCCCC3[N-]CC2C1.[Cu]` (configuration not stated), the T/C is, setting by setting: under setting [11], 123 % of control; under setting [12], 156 % of control.
Regarding `O=c1[nH]c2ccccc2n1C1CCN(CCCC(c2ccc(F)cc2)c2ccc(F)cc2)CC1`, the T/C under setting [11] is 102 % of control; the T/C under setting [12] was 100 % of control; the T/C under setting [10] is 100 % of control; the T/C under setting [5] is 94 % of control; the T/C under setting [6] is 105 % of control; the T/C under setting [7] is 87 % of control. Besides, the T/C under setting [8] was 87 % of control.
Turning to `O=C(/C=C/C(=O)OCC(Cl)(Cl)Cl)OCC(Cl)(Cl)Cl`, the T/C was 96 % of control under setting [3] and 92 % of control under setting [4].
As for `NC(CNC(=O)CBr)C(=O)O` (configuration not stated), the T/C runs as follows: (dose: 6.25 mg/kg/injection, schedule: Q01DX009 (ip), vehicle: water) 109 % of control; (dose: 12.5 mg/kg/injection, schedule: Q01DX009 (ip), vehicle: water) 104 % of control; (dose: 25.0 mg/kg/injection, schedule: Q01DX009 (ip), vehicle: water) 122 % of control.
On to `[I][Hg][CH2]C1OCCOC1[CH2][Hg][I]` (configuration not stated), for which the T/C is 100 % of control under setting [10]; 101 % of control under setting [5]; 106 % of control under setting [6]; 107 % of control under setting [7]; 105 % of control under setting [8]; 95 % of control under setting [9].
On to `COC(=O)[C@@H]1[C@H](O)[C@H](C)[C@H](O)[C@@](C)(O)/C=C\C=C(C)C(=O)Nc2c(C)c(OC(C)=O)c3c(c2O)C(=O)C(C)=C2OCOC(=C23)C(C)=C[C@@](C)(O)[C@H](O)[C@@H](C)[C@H]1OC(C)=O`, for which the T/C was 106 % of control under setting [10]; 99 % of control under setting [5]; 90 % of control under setting [6]; 91 % of control under setting [7]; 97 % of control (dose: 75.0 mg/kg/injection, schedule: Q01DX009 (ip), vehicle: saline with Tween-80); 95 % of control under setting [8]. Besides, the T/C was 91 % of control (dose: 150.0 mg/kg/injection, schedule: Q01DX009 (ip), vehicle: saline with Tween-80) and 87 % of control (dose: 300.0 mg/kg/injection, schedule: Q01DX009 (ip), vehicle: saline with Tween-80).
As for `CN1C(=O)CN=C(c2ccccc2)c2cc(Cl)ccc21`, the T/C was 95 % of control (dose: 0.02 mg/kg/injection, schedule: Q01DX009 (ip), vehicle: Klucel (hydroxypropylcellulose) (HPC)); 100 % of control (dose: 0.03 mg/kg/injection, schedule: Q01DX009 (ip), vehicle: saline); 233 % of control (dose: 0.04 mg/kg/injection, schedule: Q01DX009 (ip), vehicle: Klucel (hydroxypropylcellulose) (HPC)); 97 % of control (dose: 0.05 mg/kg/injection, schedule: Q01DX009 (ip), vehicle: saline); 104 % of control (dose: 0.09 mg/kg/injection, schedule: Q01DX009 (ip), vehicle: Klucel (hydroxypropylcellulose) (HPC)); 91 % of control (dose: 0.1 mg/kg/injection, schedule: Q01DX009 (ip), vehicle: saline). For the same compound, the T/C is 109 % of control (dose: 0.19 mg/kg/injection, schedule: Q01DX009 (ip), vehicle: Klucel (hydroxypropylcellulose) (HPC)); 91 % of control and 105 % of control (dose: 0.39 mg/kg/injection, schedule: Q01DX009 (ip), vehicle: Klucel (hydroxypropylcellulose) (HPC)); 94 % of control (dose: 5.0 micrograms/kg/injection, schedule: Q01DX009 (ip), vehicle: Klucel (hydroxypropylcellulose) (HPC)); 93 % of control (dose: 10.0 micrograms/kg/injection, schedule: Q01DX009 (ip), vehicle: Klucel (hydroxypropylcellulose) (HPC)); 86 % of control (dose: 20.0 micrograms/kg/injection, schedule: Q01DX009 (ip), vehicle: Klucel (hydroxypropylcellulose) (HPC)); 94 % of control (dose: 40.0 micrograms/kg/injection, schedule: Q01DX009 (ip), vehicle: Klucel (hydroxypropylcellulose) (HPC)). Further, for the setting “dose: 90.0 micrograms/kg/injection, schedule: Q01DX009 (ip), vehicle: Klucel (hydroxypropylcellulose) (HPC)”, the T/C was 92 % of control.
For the compound `CCCCCCC(=O)CC(SCC)c1ccccc1Cl` (configuration not stated), the T/C under setting [1] was 107 % of control; the T/C under setting [2] is 107 % of control; the T/C under setting [3] was 107 % of control; the T/C under setting [4] was 100 % of control; the T/C (dose: 400.0 mg/kg/injection, schedule: Q01DX009 (ip), vehicle: saline with Tween-80) is 91 % of control.
